According to PMC12649549, “Sequence Permutation Generated Lysine and Tryptophan-Rich Antimicrobial Peptides with Enhanced Therapeutic Index” (Antibiotics, 2025):

Assays:
[1] = Calcein dye leakage assay, POPC:LPS LUVs; settings: POPC:LPS (12.5:1) LUVs, final peptide concentration 2 μg/mL; n = 3
Procedure: (§1) Large unilamellar vesicles (LUVs) containing POPC:LPS (12.5:1, mol/mol) and POPC:cholesterol (2:1, mol/mol) were prepared using the extrusion method and an Avanti small-volume extrusion apparatus(Avanti Polar Lipids). To prepare the vesicles, phospholipids were dissolved in a chloroform/methanol mixture (4:1, v/v), evaporated using nitrogen gas, and suspended in PBS buffer. The lipid suspensions underwent six to eight cycles of freezing and thawing before being extruded ten times through a […] pore size polycarbonate filter, followed by ten times through a […] filter. Calcein-filled LUVs were also prepared by loading calcein-containing buffer (70 mM calcein and 10 mM Tris at pH 7.4) into a Sephadex G-75 column loaded with iso-osmotic buffer (100 mM sodium chloride and 10 mM Tris) to remove unencapsulated calcein. The phospholipid content of the vesicles was determined by assessing inorganic phosphate using the ammonium ferrothiocyanate method described by John Charles Marshall Stewart.
(§2) Calcein leakage induced by peptides was measured using a Perkin-Elmer luminescence spectrofluorimeter with excitation and emission wavelengths of 496 and 515 nm, respectively. Calcein-entrapped LUVs were diluted to a concentration of 10 µM. The maximum degree of leakage was induced by 100 mg/mL Triton X-100.
(§3) The degree of leakage induced by various peptide concentrations was calculated using the formula: Leakage % = ((F − F0)/(Fr − F0)) × 100%, where F0 and Fr represent the initial fluorescence intensities observed without peptide and after adding 100 mg/mL Triton X-100, respectively.

[2] = test system: human red blood cells (hRBCs); assay: Hemolytic activity assay; type: cell-based; settings: 1 h; for lysis of RBCs (hemolysis): 200 μM peptide, 100% = 1% Triton X-100
Procedure: Equal volumes of peptides and hRBCs were mixed and incubated at 37 °C for 1 h. The supernatant was collected from the samples and tested for absorbance at 565 nm. Zero hemolysis (blank) was defined in PBS buffer, while 100% hemolysis was defined in 1% Triton X-100.
Hemolytic activity was evaluated by testing the ability of the peptides to cause lysis of human red blood cells (hRBCs), both in the presence and absence of the antimicrobial peptide. Blood samples were collected from healthy volunteers and treated with ethylenediaminetetraacetic acid (EDTA) to prevent coagulation. The hRBCs were then washed three times with phosphate-buffered saline (PBS) and pelleted by centrifugation at 800× g for 10 min. Next, the hRBCs were diluted in PBS to a final concentration of 10%. Peptides were serially diluted in PBS ranging from 400 µM to 3.13 µM, and an equal volume of 10% hRBC was added to each dilution. After incubation at 37 °C for 1 h, the supernatant was collected by centrifugation at 800× g for 10 min, and the absorbance at 565 nm was measured. Negative controls (PBS blank) and positive controls (1% Triton X-100 in PBS) were also included. The percentage of hemolysis was calculated using the following formula: %hemolysis = [(Asample − APBS)/(ATritonX-100 − APBS)] × 100%, where A is the absorbance under the specified conditions.

HaCaT cells = assay: Cell migration assay (in vitro wound healing assay); type: cell-based, human; settings: 24 h
Procedure: Figure 3 Cell migration rate (In Vitro wound healing rate) of HaCaT cells induced by the designed peptides. […] (Bar: 200 μm) Results are presented as means ± standard deviations (SD); n = 3 (three independent experiments), ns = no significant differences; ** p < 0.01; *** p < 0.001; **** p < 0.0001 compared with PBS (Negative Control) and 100 ng/mL EGF (Positive Control).
For the Cell Migration Assay (in vitro wound healing assay), HaCaT cells (4 × 10^4 cells) were seeded on each side of an ibidi culture insert (ibidi, Germany) in DMEM medium supplemented with 10% fetal bovine serum. The inserts were placed into a 24-well plate and incubated at 37 °C and 5% CO2 overnight. After removing the inserts, 1 mL of serum-free DMEM medium supplemented with different concentrations of peptide was added. Medium without peptide and with 100 ng/mL EGF (epidermal growth factor) were used as negative and positive controls, respectively. The migration area was imaged at 0 and 24 h using an inverted fluorescent microscope (Zeiss/Observer Z1) at 10× magnification, and the area was quantified using ImageJ software(version 1.54g). The repairing rate was calculated using the formula: Repairing Rate = (Area0h-Area24h)/Area0h, where 0 h and 24 h represent the time points at which the images were taken.

[3] = Calcein dye leakage assay, POPC:Cholesterol LUVs; settings: POPC:Cholesterol (2:1) LUVs, final peptide concentration 2 μg/mL; n = 3
Procedure: as §1, §2, §3

[4] = hRBCs in PBS, 37 °C, absorbance 565 nm
[5] = hRBCs in PBS, 37 °C, absorbance 565 nm, 108.7 µg/mL(200 µM) used when no detectable hemolytic activity

Substance | calcein leakage [1] | lysis of RBCs (hemolysis) [2, 4] | wound healing effect (cell migration rate) (HaCaT cells; 4 µg/mL peptide) | HC10 (concentration that induced 10% hemolysis of human red blood cells) ([2]; phosphate buffer) | calcein leakage [3] | wound healing effect (cell migration rate) (HaCaT cells; serum-free DMEM, 0.25 µg/mL to 4 µg/mL, compared to the negative control) | HC10 (concentration that induced 10% hemolysis of human red blood cells) [2, 5]
Ac-AKKKKWRKWLKWL-NH2 [Peptide W5K10] | 81% | less than 10% | comparable wound healing effects |  |  |  | 
Ac-KKKKWRKWLKWLA-NH2 [Peptide W5K11] | 85% | ~27% | comparable wound healing effects | 71.0 µg/mL | above 60% | superior wound healing effect even at the lowest concentration of 0.25 µg/mL | 
Ac-KKKWRKWLKWLAK-NH2 [Peptide W5K12] | 82% | ~30% |  |  | above 60% |  | 41.7 µg/mL
Ac-KKWRKWLKWLAKK-NH2 [W5K/A9W] | 82% | approximately 35% | comparable wound healing effects |  | above 60% |  | 30.0 µg/mL
Ac-KWRKWLKWLAKKK-NH2 [Peptide W5K01] | 74% | ~25% |  |  | above 60% |  | 70.9 µg/mL
Ac-WLKWLAKKKKWRK-NH2 [Peptide W5K05] | 69% |  |  |  |  |  | 
Ac-WRKWLKWLAKKKK-NH2 [Peptide W5K02] | 78% | ~34% |  |  | above 60% |  | 16.7 µg/mL
